Tested on: CX3CR1/GFP^intLy6C^hi effector monocytes
Test: IL-6 ELISA of sorted colonic cells cultured with TLR/NOD2 ligands
Format: cell-based, mice
Conditions: cells sorted at DSS day 7, cultured 16 hr; Pam3CSK4 10 µg/ml, LPS 100 ng/ml
From the text: To probe whether the pro-inflammatory signature of the effector monocytes could have been a result of TLR and NOD-2 engagement, the cells were isolated from colitic mice and exposed to the respective ligands.

Pam3CSK4 was tested, and the IL-6 secretion was “substantial IL-6 secretion”.
